Laboratory results as given in patent US12655116B2, “Substituted isophthalic acid diamides” (Bayer Aktiengesellschaft, priority 2020, dated 2026).

Tests used:
[1] = test system: MATIN; assay: Post-emergence herbicidal action against MATIN; format: in vivo, Matricaria inodora
Method in brief: (§1)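 Visual % rating (0% = as untreated, 100% = dead) ~3 wk after spraying one-leaf-stage plants grown in sandy loam; WP/EC in water at 600–800 l/ha, 0.2% wetting agent.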

[2] = test system: AMARE; assay: Pre-emergence herbicidal action against AMARE; format: in vivo, Amaranthus retroflexus
Method in brief: (§2)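 Sandy loam pots, seeds covered with soil, then surface-treated with WP or EC formulations at 600–800 l/ha water plus 0.2% wetting agent. Greenhouse, 3 weeks. Percent damage vs untreated controls.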

[3] = test system: AVEFA; assay: Post-emergence herbicidal action against AVEFA; format: in vivo, Avena fatua; settings: 20 g/ha, visual assessment about 3 weeks after treatment, 100% = plants have died, 0% = like control plants
Protocol: Seeds of monocotyledonous and dicotyledonous weed and crop plants are laid out in sandy loam soil in wood-fiber pots, covered with soil and cultivated in a greenhouse under good growth conditions. 2 to 3 weeks after sowing, the test plants are treated at the one-leaf stage. The compounds of the invention, formulated in the form of wettable powders (WP) or as emulsion concentrates (EC), are then sprayed onto the green parts of the plants in the form of an aqueous suspension or emulsion at a water application rate equivalent to 600 to 800 l/ha, with addition of 0.2% wetting agent. After the test plants have been left to stand in the greenhouse under optimal growth conditions for about 3 weeks, the action of the preparations is assessed visually in comparison to untreated controls (herbicidal action in percent (%): 100% activity=the plants have died, 0% activity=like control plants). […] The tables below illustrate, in an illustrative manner, the post-emergence herbicidal action of the compounds of the invention, the herbicidal activity being stated in percent.

[4] = test system: MATIN; assay: Pre-emergence herbicidal action against MATIN; format: in vivo, Matricaria inodora
Method in brief: as §2

[5] = test system: VERPE; assay: Post-emergence herbicidal action against VERPE; format: in vivo, Veronica persica; settings: 20 g/ha
Method in brief: as §1

[6] = test system: ALOMY; assay: Post-emergence herbicidal action against ALOMY; format: in vivo, Alopecurus myosuroides; settings: dosage 20 g/ha, visual assessment about 3 weeks after treatment vs untreated controls
Method in brief: as §1

[7] = test system: ABUTH; assay: Pre-emergence herbicidal action against ABUTH; format: in vivo, Abutilon theophrasti; settings: for Pre-emergence action against ABUTH (herbicidal activity): 80 g/ha, scored visually after 3 weeks vs untreated controls (100% = plants have died, 0% = like control plants); for Pre-emergence action against ABUTH (herbicidal activity in percent): dosage 20 g/ha, scored visually after 3 weeks vs untreated controls, 100% = plants have died, 0% = like control plants
Method in brief: as §2

[8] = test system: VIOTR; assay: Pre-emergence herbicidal action against VIOTR; format: in vivo, Viola tricolor
Method in brief: as §2

[9] = test system: SETVI; assay: Post-emergence herbicidal action against SETVI; format: in vivo, Setaria viridis
Method in brief: as §1

[10] = test system: ABUTH; assay: Post-emergence herbicidal action against ABUTH; format: in vivo, Abutilon theophrasti; settings: dosage 20 g/ha, visual assessment about 3 weeks after treatment vs untreated controls
Method in brief: as §1

[11] = test system: ECHCG; assay: Post-emergence herbicidal action against ECHCG; format: in vivo, Echinochloa crus-galli
Method in brief: as §1

[12] = test system: AMARE; assay: Post-emergence herbicidal action against AMARE; format: in vivo, Amaranthus retroflexus; settings: 20 g/ha, visual assessment about 3 weeks after treatment, 100% = plants have died, 0% = like control plants
Method in brief: as §1

[13] = test system: VERPE; assay: Pre-emergence herbicidal action against VERPE; format: in vivo, Veronica persica
Method in brief: as §2

[14] = test system: ALOMY; assay: Pre-emergence herbicidal action against ALOMY; format: in vivo, Alopecurus myosuroides; settings: for Pre-emergence action against ALOMY (herbicidal activity): 80 g/ha, scored visually after 3 weeks vs untreated controls (100% = plants have died, 0% = like control plants)
Method in brief: as §2

[15] = test system: PHBPU; assay: Post-emergence herbicidal action against PHBPU; format: in vivo, Pharbitis purpurea; settings: dosage 20 g/ha
Method in brief: as §1

[16] = test system: AVEFA; assay: Pre-emergence herbicidal action against AVEFA; format: in vivo, Avena fatua; settings: 80 g/ha, pre-emergence
Method in brief: as §2

[17] = test system: SETVI; assay: Pre-emergence herbicidal action against SETVI; format: in vivo, Setaria viridis; settings: dosage 80 g/ha
Method in brief: as §2

[18] = test system: VIOTR; assay: Post-emergence herbicidal action against VIOTR; format: in vivo, Viola tricolor
Method in brief: as §1

[19] = test system: ECHCG; assay: Pre-emergence herbicidal action against ECHCG; format: in vivo, Echinochloa crus-galli; settings: 80 g/ha
Method in brief: as §2

[20] = test system: DIGSA; assay: Pre-emergence herbicidal action against DIGSA; format: in vivo, Digitaria sanguinalis
Method in brief: as §2

[21] = test system: PHBPU; assay: Pre-emergence herbicidal action against PHBPU; format: in vivo, Pharbitis purpurea; settings: dosage 80 g/ha
Method in brief: as §2

[22] = 20 g/ha, scored visually after 3 weeks vs untreated controls, 100% = plants have died, 0% = like control plants
[23] = 80 g/ha, scored visually after 3 weeks vs untreated controls (100% = plants have died, 0% = like control plants)

| Structure (SMILES) | Post-emergence action against MATIN in % ([1]; dosage 20 g/ha) | Pre-emergence action against AMARE in % [2, 22] | Pre-emergence action against AMARE in % [2, 23] | Post-emergence action at 20 g/ha against AVEFA in % [3] | Pre-emergence action against MATIN in % ([4]; dosage 20 g/ha) | Pre-emergence action against MATIN in % ([4]; dosage 80 g/ha) | Pre-emergence action against ABUTH (herbicidal activity) [7] | Pre-emergence action against ABUTH (herbicidal activity in percent) [7] | Pre-emergence action against VIOTR in % ([8]; dosage 20 g/ha) | Pre-emergence action against VIOTR in % ([8]; dosage 80 g/ha) | Post-emergence action against SETVI in % ([9]; dosage 20 g/ha) | Post-emergence action against ABUTH in % [10] | Post-emergence action against ECHCG in % ([11]; dosage 5 g/ha) | Post-emergence action against ECHCG in % ([11]; dosage 20 g/ha) | Post-emergence action at 20 g/ha against AMARE in % [12] | Pre-emergence action against ALOMY (herbicidal activity) [14] | Post-emergence action against PHBPU in % [15] | Pre-emergence action against AVEFA in % [16] | Pre-emergence action against SETVI in % [17] | Pre-emergence action against ECHCG in % [19] | further results |
| --- | --- | --- | --- | --- | --- | --- | --- | --- | --- | --- | --- | --- | --- | --- | --- | --- | --- | --- | --- | --- | --- |
| CSc1c(C(=O)Nc2nnnn2C)ccc(C(F)(F)F)c1C(=O)NC(C)C1CC1 (centres unmarked) [Example 1-352] | 90% | 100% | 100% | 80% | 100% | 100% | 100% | 100% | 100% | 100% | 100% | 100% | 100% | 100% | 100% | 80% | 90% | 80% | 100% | 100% | Post-emergence action against MATIN in % ([1]; dosage 5 g/ha): 80%; Post-emergence action against VERPE in % [5]: 90%; Post-emergence action against ALOMY in % [6]: 80%; Post-emergence action against SETVI in % ([9]; dosage 5 g/ha): 80%; Pre-emergence action against VERPE in % ([13]; dosage 20 g/ha): 90%; Pre-emergence action against VERPE in % ([13]; dosage 80 g/ha): 100%; Post-emergence action against VIOTR in % ([18]; 5 g/ha): 100%; Post-emergence action against VIOTR in % ([18]; 20 g/ha): 100% |
| CCn1nnnc1NC(=O)c1ccc(C(F)(F)F)c(C(=O)NCC(F)(F)F)c1C [Example 2-29] | 80% | 100% | 100% | 80% | 100% | 100% | 100% | 100% | 100% | 100% | 80% | 80% | – | 80% | – | 80% | 80% | 100% | 100% | 100% | Pre-emergence action against DIGSA in % ([20]; dosage 20 g/ha): 90%; Pre-emergence action against DIGSA in % ([20]; dosage 80 g/ha): 100%; Pre-emergence action against PHBPU in % [21]: 80% |
| CCc1c(C(=O)Nc2nnnn2CC)ccc(C(F)(F)F)c1C(=O)NC(C)C1CC1 (centres unmarked) [Example 2-341] | 80% | 100% | 100% | 90% | 100% | 100% | 100% | 100% | 90% | 100% | – | 80% | 80% | 90% | 100% | 90% | 80% | 90% | 90% | 100% | Pre-emergence action against PHBPU in % [21]: 80%; Pre-emergence action against VERPE in % ([13]; dosage 80 g/ha): 90%; Pre-emergence action against ALOMY ([14]; 20 g/ha, scored visually after 3 weeks, 100% = plants have died, 0% = like control plants): 80% |
